For the assay, the system named is Z33 G4 (radiolabeled) (DNA, G4) AAAGTGATGGTGGTGGGGGAAGGATTTTCGAAC
The assay is described as follows: EMSA, displacement of bound DHX36 protein. The conditions noted are these: 100 mM KCl, 10 mM NaCl, 3.3 mM MgCl2, 10 mM EDTA; K-Res buffer pH 7.8, 37 °C, no ATP; DHX36 (4 nM) displaced from 4 nM G4; poly(dI:dC) present. A general note: In EMSA bound probe runs differently from free probe, usually more slowly.

This is an account of results in article PMC4344499 (2015).

The term IC50 denotes the point on the concentration scale where inhibition reaches its midpoint. Turning to `NCCOc1cc(C(=O)Nc2cc(OCCN)c3ccccc3n2)nc(C(=O)Nc2cc(OCCN)c3ccccc3n2)c1`, the 50% inhibitory concentration (IC50) is given as 33 nM.
